Data reported in patent US20150322033A1, “ANTIBACTERIAL AGENT” (priority 2012, published 2015).
Converted amounts (≈) assume the structure as drawn. Where two headings read alike, the source gives them in different places.

Experiments:
GyrA(wt) + GyrB(wt) = target: T1, GyrA(wt) + GyrB(wt) (Staphylococcus aureus, UniProt P20831); assay: DNA cleavage assay with GyrA(wt) and GyrB(wt); type: biochemical
T1 construct: made in house; host or cells: E. coli BL21(DE3)
Source text: The gene sequence encoding the wild-type GyrA of Staphylococcus aureus (henceforth also referred to as “GyrA(wt)”) shown as SEQ ID NO: 1 was cloned into the plasmid pMAL-c2 (produced by New England Biolabs) (the resultant is henceforth also referred to as “pMAL-c2-gyrA”).
The gene sequence encoding the wild-type GyrB of Staphylococcus aureus (henceforth also referred to as “GyrB(wt)”) shown as SEQ ID NO: 2 was cloned into the plasmid pMAL-c2 (produced by New England Biolabs) (the resultant is henceforth also referred to as “pMAL-c2-gyrB”).
E. coliBL21(DE3) (produced by Invitrogen) was transformed with pMAL-c2-gyrA mentioned above, with pMAL-c2-gyrB mentioned above, or with pMAL-c2-SAGAmut84 containing a mutant gyrA encoding the amino acid sequence of GyrA(wt) in which serine residue at the 84th position from the amino terminus is substituted with a leucine residue (see, Hiramatsu K., Igarashi M., Morimoto Y, Baba T., Umekita M., Akamatsu Y., Int. J. Antimicrob. Agents, 2012 June; 39(6), 478-85). To the culture medium of the resulting transformed Escherichia coli, 1 mM […] (produced by Wako Pure Chemical Industries) was added to induce expression of maltose-binding GyrA(wt), maltose-binding GyrB(wt), or maltose-binding mutant GyrA(S84L), and the bacterium was cultured overnight at 25° C. After completion of the culture, the cells were collected, and suspended in a buffer (20 mM Tris-HCl (pH 8.0), 200 mM sodium chloride, 1 mM ethylenediaminetetraacetic acid (EDTA), 1 mM dithiothreitol (DTT)), a protein extracting reagent (10× BugBuster (registered trademark), produced by Novagen) in a volume of 1/10 of the volume of the buffer, and 2.5 μL/10 mL of the buffer of Benzonase (registered trademark) nuclease (produced by Novagen) were added, the mixture was left standing at 25° C. for 30 minutes, and the cells were disrupted and lysed to obtain a disrupted cell suspension containing the maltose-binding GyrA(wt), maltose-binding GyrB(wt), or maltose-binding mutant GyrA(S84L).
Then, each disrupted cell suspension mentioned above was added to a column filled with an amylose resin covalently bound with maltose (produced by Novagen). A buffer (20 mM Tris-HCl (pH 8.0), 200 mM sodium chloride, 1 mM EDTA) containing 10 mM maltose was added to the column to elute the maltose-binding GyrA(wt), maltose-binding GyrB(wt), and maltose-binding mutant GyrA(S84L).
To each eluate, 4 units/1 mL of the eluate of protease (Factor Xa, produced by Amersham) was added, and the mixture was left standing at 25° C. for 3 hours and 30 minutes to cleave the maltose-binding proteins, GyrA(wt), GyrB(wt), and mutant GyrA(S84L) from the maltose-binding GyrA(wt), maltose-binding GyrB(wt), and maltose-binding mutant GyrA(S84L).
Then, GyrA(wt), GyrB(wt), and mutant GyrA(S84L) were concentrated by using an ultrafiltration unit (YM-50 Filter Unit, produced by Millipore).
The concentrated GyrA(wt), GyrB(wt), and mutant GyrA(S84L) were each suspended in a buffer (35 mM Tris-HCl (pH 7.5), 24 mM potassium chloride, 6 mM magnesium chloride, 1.8 mM spermidine, 0.36 mg/mL bovine serum albumin, 5 mM DTT, 50 volume % glycerol) at a concentration of 1 μg/μL for GyrA(wt), 2 μg/μL for GyrB(wt), or 1 μg/μL for mutant GyrA(S84L).
A substrate plasmid DNA, pTWV228 (0.4 μg, produced by Takara Bio), and levofloxacin (LVFX) or apigenin were added to a buffer (35 mM Tris-HCl (pH 7.5), 24 mM potassium chloride, 6 mM magnesium chloride, 1.8 mM spermidine, 0.36 mg/mL bovine serum albumin, 5 mM DTT), and 0.15 μL of the enzyme solution of GyrA(wt) and […] of the enzyme solution of GyrB(wt) were added to the mixture to prepare a reaction mixture in a total volume of 20
Levofloxacin was added at a final concentration of 0, 0.5, 1, 2, 4, 8, 16, or 32 μg/mL.
The aforementioned reaction solution was left standing at 25° C. for 30 minutes to allow the reaction. […]

S. aureus MS5935-1 = assay: MIC for S. aureus MS5935-1; type: cell-based; conditions: Staphylococcus aureus, MS59351
Procedure: The levofloxacin-susceptible Staphylococcus aureus strain MS5935-1 (strain in which the 80th serine residue from the amino terminus of the wild-type topoisomerase IV encoded by parC is mutated with phenylalanine residue, see, Hiramatsu K., Igarashi M., Morimoto Y, Baba T., Umekita M., Akamatsu Y., Int. J. Antimicrob. Agents, 2012 June; 39(6), 478-85) was cultured overnight at 37° C. with shaking in 4 mL of TBS (produced by Dickinson). After completion of the culture, the cells were suspended in fresh TBS, and the cell suspension was adjusted to have an absorbance of 0.3 measured at 578 nm. Then, the cell suspension was diluted 10,000 times with TBS. This diluted cell suspension was inoculated (0.1 mL each) into ten test tubes containing 4 mL each of TBS, and preculture was carried out overnight at 37° C.

| Structure (SMILES) | Ratio of cleaved DNA (%) (GyrA(wt) + GyrB(wt); 2 μg/mL, Table 14) | Ratio of substrate plasmid DNA (%) (GyrA(wt) + GyrB(wt); 2 μg/mL, Table 14) | Ratio of cleaved DNA (%) (GyrA(wt) + GyrB(wt); 4 μg/mL, Table 14) | Ratio of substrate plasmid DNA (%) (GyrA(wt) + GyrB(wt); 4 μg/mL, Table 14) | Ratio of cleaved DNA (%) (GyrA(wt) + GyrB(wt); 8 μg/mL, Table 14) | Ratio of substrate plasmid DNA (%) (GyrA(wt) + GyrB(wt); 8 μg/mL, Table 14) | Ratio of cleaved DNA (%) (GyrA(wt) + GyrB(wt); 16 μg/mL, Table 14) | Ratio of substrate plasmid DNA (%) (GyrA(wt) + GyrB(wt); 16 μg/mL, Table 14) | Ratio of cleaved DNA (%) (GyrA(wt) + GyrB(wt); 32 μg/mL, Table 14) | Ratio of substrate plasmid DNA (%) (GyrA(wt) + GyrB(wt); 32 μg/mL, Table 14) | MIC (S. aureus MS5935-1) [µg/mL] | also measured |
| --- | --- | --- | --- | --- | --- | --- | --- | --- | --- | --- | --- | --- |
| O=c1cc(-c2ccc(O)cc2)oc2cc(O)cc(O)c12 [No. 7, 4′,5,7-Trihydroxyflavone] | 34 | 66 | 35 | 65 | 36 | 64 | 35 | 65 | 40 | 60 | > 128 | Ratio of cleaved DNA (%) (GyrA(wt) + GyrB(wt); 64 μg/mL, Table 14): 43%; Ratio of substrate plasmid DNA (%) (GyrA(wt) + GyrB(wt); 64 μg/mL, Table 14): 57%; inhibitory activity against the wild-type DNA gyrase (GyrA(wt) + GyrB(wt); FIG. 1 and 2): did not exhibit any inhibitory activity; IC50 (GyrA(wt) + GyrB(wt); IC50 (μg/mL) GyrA(wt) + GyrB(wt), Example 4, Table 14, from ratio of cleaved DNA): > 474 µM; IC50 (GyrA(wt) + GyrB(wt); IC50 GyrA(wt) and GyrB(wt), value in μM): > 474 µM |
| C[C@H]1COc2c(N3CCN(C)CC3)c(F)cc3c(=O)c(C(=O)O)cn1c23 [Levofloxacin, levofloxacin, reference compound] | 58 | 42 | 61 | 39 | 64 | 36 | 70 | 30 | 67 | 33 | 0.5 (≈ 1.38 µM) | Ratio of cleaved DNA (%) (GyrA(wt) + GyrB(wt); 0.5 μg/mL, Table 14): 32%; Ratio of substrate plasmid DNA (%) (GyrA(wt) + GyrB(wt); 0.5 μg/mL, Table 14): 68%; Ratio of cleaved DNA (%) (GyrA(wt) + GyrB(wt); 1 μg/mL, Table 14): 43%; Ratio of substrate plasmid DNA (%) (GyrA(wt) + GyrB(wt); 1 μg/mL, Table 14): 57%; Ratio of cleaved DNA (%) (GyrA(wt) + GyrB(wt); 4 μg/mL, Table 18): 73%; Ratio of substrate plasmid DNA (%) (GyrA(wt) + GyrB(wt); 4 μg/mL, Table 18): 27%; IC50 (GyrA(wt) + GyrB(wt); Example 4, Table 14, from ratio of cleaved DNA, read-out: IC50 (μg/mL) GyrA(wt) + GyrB(wt) (converted)): 5.53 µM |
